Data reported in ChEMBL document CHEMBL3046208, “Natural and synthetic podolactones with potential use as natural herbicide models” (2000).
Calls of active or inactive are those of the source. The rule behind the calls is not given here.

Experiments:
Assay type in all cases: functional
Solanum lycopersicum [1] = test: Stimulation of germination of Solanum lycopersicum (tomato) at 0.1 mM after 5 days relative to untreated control
Triticum aestivum [2] = test: Inhibition of germination of Triticum aestivum (wheat) at 0.1 mM after 5 days relative to untreated control
Allium cepa [3] = test: Inhibition of root length of Allium cepa (onion) at 0.1 mM after 5 days relative to untreated control; conditions: 120 h
Hordeum vulgare [4] = test: Inhibition of shoot length of Hordeum vulgare (barley) at 0.1 mM after 5 days relative to untreated control
Lactuca sativa [5] = test: Stimulation of root length of Lactuca sativa cv. Nigra (lettuce) at 0.1 mM after 5 days relative to untreated control
Lepidium sativum [6] = test: Stimulation of root length of Lepidium sativum at 0.1 mM after 5 days relative to untreated control
Lactuca sativa [7] = test: Inhibition of germination of Lactuca sativa cv. Nigra (lettuce) at 0.1 mM after 5 days relative to untreated control; conditions: 120 h
Lepidium sativum [8] = test: Inhibition of germination of Lepidium sativum at 0.1 mM after 5 days relative to untreated control
Lactuca sativa [9] = test: Stimulation of shoot length of Lactuca sativa cv. Nigra (lettuce) at 0.1 mM after 5 days relative to untreated control
Lactuca sativa [10] = test: Inhibition of root length of Lactuca sativa cv. Nigra (lettuce) at 0.1 mM after 5 days relative to untreated control
Triticum aestivum [11] = test: Inhibition of root length of Triticum aestivum (wheat) at 0.1 mM after 5 days relative to untreated control
Lepidium sativum [12] = test: Stimulation of germination of Lepidium sativum at 0.1 mM after 5 days relative to untreated control
Solanum lycopersicum [13] = test: Inhibition of root length of Solanum lycopersicum (tomato) at 0.1 mM after 5 days relative to untreated control
Hordeum vulgare [14] = test: Stimulation of shoot length of Hordeum vulgare (barley) at 0.1 mM after 5 days relative to untreated control
Lactuca sativa [15] = test: Inhibition of shoot length of Lactuca sativa cv. Nigra (lettuce) at 0.1 mM after 5 days relative to untreated control; conditions: 120 h
Triticum aestivum [16] = test: Stimulation of germination of Triticum aestivum (wheat) at 0.1 mM after 5 days relative to untreated control
Solanum lycopersicum [17] = test: Stimulation of root length of Solanum lycopersicum (tomato) at 0.1 mM after 5 days relative to untreated control
Allium cepa [18] = test: Inhibition of germination of Allium cepa (onion) at 0.1 mM after 5 days relative to untreated control; conditions: 120 h
Triticum aestivum [19] = test: Stimulation of shoot length of Triticum aestivum (wheat) at 0.1 mM after 5 days relative to untreated control
Allium cepa [20] = test: Stimulation of root length of Allium cepa (onion) at 0.1 mM after 5 days relative to untreated control
Lactuca sativa [21] = test: Inhibition of shoot length of Lactuca sativa cv. Roman (lettuce) at 0.1 mM after 5 days relative to untreated control; conditions: 120 h
Hordeum vulgare [22] = test: Inhibition of germination of Hordeum vulgare (barley) at 0.1 mM after 5 days relative to untreated control; conditions: 120 h
Lepidium sativum [23] = test: Inhibition of shoot length of Lepidium sativum at 0.1 mM after 5 days relative to untreated control; conditions: 120 h
Hordeum vulgare [24] = test: Inhibition of root length of Hordeum vulgare (barley) at 0.1 mM after 5 days relative to untreated control; conditions: 120 h
Hordeum vulgare [25] = test: Stimulation of germination of Hordeum vulgare (barley) at 0.1 mM after 5 days relative to untreated control
Lactuca sativa [26] = test: Stimulation of shoot length of Lactuca sativa cv. Roman (lettuce) at 0.1 mM after 5 days relative to untreated control
Allium cepa [27] = test: Inhibition of shoot length of Allium cepa (onion) at 0.1 mM after 5 days relative to untreated control; conditions: 120 h
Lactuca sativa [28] = test: Stimulation of germination of Lactuca sativa cv. Roman (lettuce) at 0.1 mM after 5 days relative to untreated control
Triticum aestivum [29] = test: Stimulation of root length of Triticum aestivum (wheat) at 0.1 mM after 5 days relative to untreated control
Solanum lycopersicum [30] = test: Stimulation of shoot length of Solanum lycopersicum (tomato) at 0.1 mM after 5 days relative to untreated control
Lactuca sativa [31] = test: Stimulation of root length of Lactuca sativa cv. Roman (lettuce) at 0.1 mM after 5 days relative to untreated control
Allium cepa [32] = test: Stimulation of shoot length of Allium cepa (onion) at 0.1 mM after 5 days relative to untreated control
Lepidium sativum [33] = test: Inhibition of root length of Lepidium sativum at 0.1 mM after 5 days relative to untreated control; conditions: 120 h
Solanum lycopersicum [34] = test: Inhibition of shoot length of Solanum lycopersicum (tomato) at 0.1 mM after 5 days relative to untreated control
Solanum lycopersicum [35] = test: Inhibition of germination of Solanum lycopersicum (tomato) at 0.1 mM after 5 days relative to untreated control
Lactuca sativa [36] = test: Stimulation of germination of Lactuca sativa cv. Nigra (lettuce) at 0.1 mM after 5 days relative to untreated control
Lepidium sativum [37] = test: Stimulation of shoot length of Lepidium sativum at 0.1 mM after 5 days relative to untreated control
Hordeum vulgare [38] = test: Stimulation of root length of Hordeum vulgare (barley) at 0.1 mM after 5 days relative to untreated control
Allium cepa [39] = test: Stimulation of germination of Allium cepa (onion) at 0.1 mM after 5 days relative to untreated control
Lactuca sativa [40] = test: Inhibition of germination of Lactuca sativa cv. Roman (lettuce) at 0.1 mM after 5 days relative to untreated control; conditions: 120 h
Lactuca sativa [41] = test: Inhibition of root length of Lactuca sativa cv. Roman (lettuce) at 0.1 mM after 5 days relative to untreated control
Triticum aestivum [42] = test: Inhibition of shoot length of Triticum aestivum (wheat) at 0.1 mM after 5 days relative to untreated control

COC(=O)[C@@]1(C)CCC[C@]2(C)C3=CC(=O)OCC3=CC[C@@H]12
Activity (Solanum lycopersicum [1]): inactive
inhibition (Triticum aestivum [2]): inactive
inhibition at 100 µM (Allium cepa [3]): 20%
inhibition (Hordeum vulgare [4]): inactive
Activity (Lactuca sativa [5]): <20%
Activity (Lepidium sativum [6]): 20%
inhibition at 100 µM (Lactuca sativa [7]): 20%
inhibition (Lepidium sativum [8]): inactive
Activity (Lactuca sativa [9]): <20%
inhibition at 100 µM (Lactuca sativa [10]; 120 h): < 20%
inhibition (Triticum aestivum [11]): inactive
Activity (Lepidium sativum [12]): inactive
inhibition (Solanum lycopersicum [13]): inactive
Activity (Hordeum vulgare [14]): inactive
inhibition at 100 µM (Lactuca sativa [15]): < 20%
Activity (Triticum aestivum [16]): inactive
Activity (Solanum lycopersicum [17]): inactive
inhibition at 100 µM (Allium cepa [18]): < 20%
Activity (Triticum aestivum [19]): inactive
Activity (Allium cepa [20]): 20%
inhibition at 100 µM (Lactuca sativa [21]): < 20%
inhibition at 100 µM (Hordeum vulgare [22]): 20%
inhibition at 100 µM (Lepidium sativum [23]): 20%
inhibition at 100 µM (Hordeum vulgare [24]): > 40%
Activity (Hordeum vulgare [25]): 20%
Activity (Lactuca sativa [26]): <20%
inhibition at 100 µM (Allium cepa [27]): 20%
Activity (Lactuca sativa [28]): <20%
Activity (Triticum aestivum [29]): inactive
Activity (Solanum lycopersicum [30]): inactive
Activity (Lactuca sativa [31]): inactive
Activity (Allium cepa [32]): 20%
inhibition at 100 µM (Lepidium sativum [33]): 20%
inhibition (Solanum lycopersicum [34]): inactive
inhibition (Solanum lycopersicum [35]): inactive
Activity (Lactuca sativa [36]): 20%
Activity (Lepidium sativum [37]): 20%
Activity (Hordeum vulgare [38]): >40%
Activity (Allium cepa [39]): <20%
inhibition at 100 µM (Lactuca sativa [40]): < 20%
inhibition (Lactuca sativa [41]): inactive
inhibition (Triticum aestivum [42]): inactive

COC(=O)[C@@]1(C)CCC[C@]2(C)C3=CC(=O)O[C@H](C(C)C)C3=CC[C@@H]12
Activity (Solanum lycopersicum [1]): <20%
inhibition (Triticum aestivum [2]): inactive
inhibition at 100 µM (Allium cepa [3]): 20%
inhibition (Hordeum vulgare [4]): inactive
Activity (Lactuca sativa [5]): inactive
Activity (Lepidium sativum [6]): 20%
inhibition at 100 µM (Lactuca sativa [7]): < 20%
inhibition (Lepidium sativum [8]): inactive
Activity (Lactuca sativa [9]): <20%
inhibition (Lactuca sativa [10]): inactive
inhibition at 100 µM (Triticum aestivum [11]; 120 h): < 20%
Activity (Lepidium sativum [12]): inactive
inhibition at 100 µM (Solanum lycopersicum [13]; 120 h): > 40%
Activity (Hordeum vulgare [14]): inactive
inhibition at 100 µM (Lactuca sativa [15]): < 20%
Activity (Triticum aestivum [16]): inactive
Activity (Solanum lycopersicum [17]): >40%
inhibition at 100 µM (Allium cepa [18]): 20%
Activity (Triticum aestivum [19]): inactive
Activity (Allium cepa [20]): 20%
inhibition at 100 µM (Lactuca sativa [21]): < 20%
inhibition at 100 µM (Hordeum vulgare [22]): 20%
inhibition at 100 µM (Lepidium sativum [23]): < 20%
inhibition at 100 µM (Hordeum vulgare [24]): < 20%
Activity (Hordeum vulgare [25]): 20%
Activity (Lactuca sativa [26]): <20%
inhibition at 100 µM (Allium cepa [27]): 20%
Activity (Lactuca sativa [28]): <20%
Activity (Triticum aestivum [29]): <20%
Activity (Solanum lycopersicum [30]): <20%
Activity (Lactuca sativa [31]): <20%
Activity (Allium cepa [32]): 20%
inhibition at 100 µM (Lepidium sativum [33]): 20%
inhibition at 100 µM (Solanum lycopersicum [34]; 120 h): < 20%
inhibition at 100 µM (Solanum lycopersicum [35]; 120 h): < 20%
Activity (Lactuca sativa [36]): <20%
Activity (Lepidium sativum [37]): <20%
Activity (Hordeum vulgare [38]): <20%
Activity (Allium cepa [39]): 20%
inhibition at 100 µM (Lactuca sativa [40]): < 20%
inhibition at 100 µM (Lactuca sativa [41]; 120 h): < 20%
inhibition (Triticum aestivum [42]): inactive
